Laboratory results: the NIST ThermoML archive (doi:10.1016/j.jct.2008.02.002)
“And” between values parts separate entries of the source, which are not always exact repeats. Identical values can stand only once.

Settings: Liquid, Transpiration method

CCCCCCC1CCC(=O)O1 (stereo unspecified) [γ-decalactone]
Settings | vapor or sublimation pressure
298.4 K | 0.00035 kPa
303.3 K | 0.00056 kPa
308.2 K | 0.00088 kPa
313.1 K | 0.00146 kPa
313.4 K | 0.00144 kPa
318.2 K | 0.00214 kPa and 0.00233 kPa
322.9 K | 0.00339 kPa
323.2 K | 0.00345 kPa
328.1 K | 0.00532 kPa
328.2 K | 0.00523 kPa
333 K | 0.00765 kPa
333.2 K | 0.00791 kPa
338.1 K | 0.0114 kPa
338.7 K | 0.01181 kPa
343.2 K | 0.01646 kPa
343.9 K | 0.01747 kPa
348.2 K | 0.02361 kPa
349.4 K | 0.02507 kPa
353.3 K | 0.03379 kPa
354.8 K | 0.03595 kPa
360.3 K | 0.05404 kPa
365 K | 0.07279 kPa

CCCC1CCC(=O)O1 (stereo unspecified) [2(3H)-furanone, dihydro-5-propyl-]
Settings | vapor or sublimation pressure [kPa]
298.1 K | 0.00729
302.8 K | 0.01081
308 K | 0.01613
313.1 K | 0.02435
318 K | 0.03459
323.1 K | 0.05178
328.1 K | 0.07127
333 K | 0.09289
338.2 K | 0.1344
343.2 K | 0.1842
348.2 K | 0.2432
353.2 K | 0.3239
358.4 K | 0.4408
363.2 K | 0.572

CCC1CCC(=O)O1 (stereo unspecified) [2(3H)-furanone, 5-ethyldihydro-]
Settings | vapor or sublimation pressure [kPa]
283.3 K | 0.00612
284.1 K | 0.00643
285.3 K | 0.00733
288.2 K | 0.00998
290.2 K | 0.01151
293.2 K | 0.01468
295.3 K | 0.0168
298.2 K | 0.02155
300.2 K | 0.0271
303.2 K | 0.0324
305.2 K | 0.0372
308.1 K | 0.04647
310.1 K | 0.05153
313.2 K | 0.06502
315.1 K | 0.06992
318.2 K | 0.08725
323.2 K | 0.1267
328.2 K | 0.1719
333.2 K | 0.2306
338.2 K | 0.3093
343.1 K | 0.4065
348.2 K | 0.5374
350.9 K | 0.6238
353.3 K | 0.6982

CCCCCC1CCC(=O)O1 (stereo unspecified) [2(3H)-furanone, dihydro-5-pentyl-]
Settings | vapor or sublimation pressure [kPa]
296.2 K | 0.00085
300 K | 0.00123
306 K | 0.00211
313.1 K | 0.00391
318.1 K | 0.00574
323.2 K | 0.0088
328.2 K | 0.01277
333.1 K | 0.01835
338 K | 0.02514
342.8 K | 0.03648
348.4 K | 0.05463
353.2 K | 0.07252
358.1 K | 0.1037
363.4 K | 0.1375

CC1CCC(=O)O1 (stereo unspecified) [γ-valerolactone]
Settings | vapor or sublimation pressure [kPa]
275.8 K | 0.00748
282 K | 0.0128
288 K | 0.02076
292.8 K | 0.02954
293.4 K | 0.03202
298.6 K | 0.04438
300.7 K | 0.05548
302.7 K | 0.06032
306.6 K | 0.08358
309 K | 0.09563
312.9 K | 0.1265
317.3 K | 0.1599
322.3 K | 0.2195
326.9 K | 0.2912
332.4 K | 0.3929
333.9 K | 0.4475
337.3 K | 0.5167
338.8 K | 0.58
342.6 K | 0.7011
343.8 K | 0.759
347.5 K | 0.9099
349.7 K | 1.033
